ChEMBL document CHEMBL1201862, “PubChem BioAssay data set” (2004)
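Cultured in 96-well plates, cells were exposed to test compound for 48 hours across five concentrations. At the GI50, growth is halved.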 Active and inactive are the calls of the source. Rule as the data show it: active = GI50 up to about 1.1 µM and inactive = higher.

How the values were obtained:
Assay in all cases: NCI tumour cell line growth inhibition, 48 h
A549 = tested on: A549
ACHN = tested on: ACHN
HOP-62 = tested on: HOP-62
K562 = tested on: K562
Malme-3M = tested on: Malme-3M
OVCAR-3 = tested on: OVCAR-3
OVCAR-8 = tested on: OVCAR-8
SF-268 = tested on: SF-268
SF-295 = tested on: SF-295
SK-MEL-28 = tested on: SK-MEL-28
SK-MEL-2 = tested on: SK-MEL-2
SK-MEL-5 = tested on: SK-MEL-5
TK-10 = tested on: TK-10
U-251 = tested on: U-251
UACC-257 = tested on: UACC-257
UACC-62 = tested on: UACC-62
NCI-H460 = tested on: NCI-H460
RPMI-8226 = tested on: RPMI-8226

Structure (SMILES) | GI50 (A549) | GI50 (ACHN) | GI50 (HOP-62) | GI50 (K562) | GI50 (Malme-3M) | GI50 (OVCAR-3) | GI50 (OVCAR-8) | GI50 (SF-268) | GI50 (SF-295) | GI50 (SK-MEL-28) | GI50 (SK-MEL-2) | GI50 (SK-MEL-5) | GI50 (TK-10) | GI50 (U-251) | GI50 (UACC-257) | GI50 (UACC-62) | GI50 (NCI-H460) | GI50 (RPMI-8226)
[C-]#[N+]C(C)(C)C[C@H]1CC(C)C2CCC(C)C3([N+]#[C-])CCC(=C)C1[C@H]23 (some centres not stated) | 1.58 µM (inactive) | 0.169 µM (active) | 2.55 µM (inactive) | 0.327 µM (active) | 5.86 µM (inactive) | 2.36 µM (inactive) | 0.227 µM (active) | 0.308 µM (active) | 0.887 µM (active) | 11.3 µM (inactive) | 0.753 µM (active) | 2.67 µM (inactive) | 5.62 µM (inactive) | 1.51 µM (inactive) | 0.959 µM (active) | 2.82 µM (inactive) | – | –
O=C(N/C(=C\c1cc(Cl)ccc1Cl)c1nc2ccccc2[nH]1)c1ccccc1 | 35.1 µM (inactive) | 33.3 µM (inactive) | – | 24.4 µM (inactive) | 19.7 µM (inactive) | 36.3 µM (inactive) | 19.2 µM (inactive) | 36.1 µM (inactive) | 24.5 µM (inactive) | 45.3 µM (inactive) | 52 µM (inactive) | 21.7 µM (inactive) | 93.3 µM (inactive) | 29.7 µM (inactive) | – | 38.9 µM (inactive) | – | –
CCN(CC)/[N+]([O-])=N/OCC(C)O (configuration not stated) | > 100 µM (inactive) | > 100 µM (inactive) | > 100 µM (inactive) | > 100 µM (inactive) | – | > 100 µM (inactive) | > 100 µM (inactive) | > 100 µM (inactive) | > 100 µM (inactive) | > 100 µM (inactive) | > 100 µM (inactive) | > 100 µM (inactive) | > 100 µM (inactive) | > 100 µM (inactive) | > 100 µM (inactive) | > 100 µM (inactive) | > 100 µM (inactive) | –
COC1OC(CO)C(O)C1N (configuration not stated) | > 100 µM (inactive) | > 100 µM (inactive) | > 100 µM (inactive) | > 100 µM (inactive) | > 100 µM (inactive) | > 100 µM (inactive) | > 100 µM (inactive) | > 100 µM (inactive) | > 100 µM (inactive) | > 100 µM (inactive) | – | > 100 µM (inactive) | > 100 µM (inactive) | > 100 µM (inactive) | > 100 µM (inactive) | > 100 µM (inactive) | > 100 µM (inactive) | –
Oc1ccc(I)c2cccnc12 | 5.52 µM (inactive) | 7.13 µM (inactive) | 14.8 µM (inactive) | 2.93 µM (inactive) | 7.55 µM (inactive) | 4.82 µM (inactive) | 3.66 µM (inactive) | 7.45 µM (inactive) | 3.48 µM (inactive) | 40.1 µM (inactive) | 11.9 µM (inactive) | – | 37.2 µM (inactive) | 6.78 µM (inactive) | 16.3 µM (inactive) | – | 3.95 µM (inactive) | 2.89 µM (inactive)
CCOC(=O)c1nc2ccc(Cl)cc2c2c1Cc1ccccc1-2 | > 100 µM (inactive) | > 100 µM (inactive) | > 100 µM (inactive) | > 100 µM (inactive) | – | > 100 µM (inactive) | > 100 µM (inactive) | > 100 µM (inactive) | > 100 µM (inactive) | > 100 µM (inactive) | > 100 µM (inactive) | > 100 µM (inactive) | > 100 µM (inactive) | > 100 µM (inactive) | 75.3 µM (inactive) | > 100 µM (inactive) | – | > 100 µM (inactive)
CC(/C=C/c1ccccc1)=N\N=C(C)\C=C\c1ccccc1 | > 100 µM (inactive) | > 100 µM (inactive) | > 100 µM (inactive) | > 100 µM (inactive) | > 100 µM (inactive) | > 100 µM (inactive) | > 100 µM (inactive) | > 100 µM (inactive) | > 100 µM (inactive) | > 100 µM (inactive) | > 100 µM (inactive) | > 100 µM (inactive) | > 100 µM (inactive) | > 100 µM (inactive) | > 100 µM (inactive) | – | > 100 µM (inactive) | > 100 µM (inactive)
COc1ccc(NC(=O)C(=O)Cc2ccc([N+](=O)[O-])c([N+](=O)[O-])c2CC(=O)C(=O)Nc2ccc(OC)cc2OC)c(OC)c1 | > 100 µM (inactive) | > 100 µM (inactive) | > 100 µM (inactive) | > 100 µM (inactive) | > 100 µM (inactive) | > 100 µM (inactive) | > 100 µM (inactive) | > 100 µM (inactive) | > 100 µM (inactive) | > 100 µM (inactive) | – | – | > 100 µM (inactive) | > 100 µM (inactive) | > 100 µM (inactive) | > 100 µM (inactive) | > 100 µM (inactive) | > 100 µM (inactive)
CN(C)CCNC(=O)c1ccc2ccc3cccnc3c2n1 | 12.1 µM (inactive) | 7.45 µM (inactive) | 19.2 µM (inactive) | 21.5 µM (inactive) | 13.5 µM (inactive) | 24.7 µM (inactive) | 8.17 µM (inactive) | 16.2 µM (inactive) | 18.7 µM (inactive) | 27.9 µM (inactive) | 15.2 µM (inactive) | 13.9 µM (inactive) | 9.35 µM (inactive) | 16.3 µM (inactive) | 15.3 µM (inactive) | 16.6 µM (inactive) | 6.18 µM (inactive) | –
O=C(O/C(=C(/N=N/c1ccccc1)c1ccccc1)c1ccccc1)c1ccccc1 | > 100 µM (inactive) | > 100 µM (inactive) | – | 48.1 µM (inactive) | > 100 µM (inactive) | – | > 100 µM (inactive) | – | > 100 µM (inactive) | > 100 µM (inactive) | > 100 µM (inactive) | > 100 µM (inactive) | > 100 µM (inactive) | > 100 µM (inactive) | > 100 µM (inactive) | > 100 µM (inactive) | > 100 µM (inactive) | > 100 µM (inactive)
c1ccc(N2CCN(CCCN3CCc4c([nH]c5ccccc45)C3c3cccnc3)CC2)cc1 (configuration not stated) | > 100 µM (inactive) | > 92.9 µM (inactive) | > 100 µM (inactive) | 23.6 µM (inactive) | > 46.9 µM (inactive) | > 49.8 µM (inactive) | > 100 µM (inactive) | – | > 100 µM (inactive) | 61.9 µM (inactive) | > 100 µM (inactive) | > 70.3 µM (inactive) | 23.7 µM (inactive) | 19.1 µM (inactive) | 24.6 µM (inactive) | > 100 µM (inactive) | 48.3 µM (inactive) | 76.2 µM (inactive)
CN1CCC(O)C(CNC23CC4CC(CC(C4)C2)C3)C1 (configuration not stated) | > 100 µM (inactive) | > 100 µM (inactive) | > 100 µM (inactive) | > 100 µM (inactive) | > 100 µM (inactive) | – | > 100 µM (inactive) | > 100 µM (inactive) | > 100 µM (inactive) | > 10 µM (inactive) | > 100 µM (inactive) | > 100 µM (inactive) | > 100 µM (inactive) | > 100 µM (inactive) | > 100 µM (inactive) | > 100 µM (inactive) | > 100 µM (inactive) | –
